Tests used:
[1] = single-agent treatment; cited from earlier work
HT-29 cells = test: Western blot for MLH1 and PARP-1 cleavage after PAC-1 treatment of cell lines; format: cell-based
Experimental: FIG. 3. PAC-1 treatment leads to MLH1 cleavage in the absence of Apoptotic Death Markers. Cell lines were incubated with indicated concentrations of PAC-1 for 72 hours, followed by western blot analysis for MLH1 protein level, as well as PARP-1, cleaved PARP-1 (c-PARP-1 is an apoptosis maker), and beta-actin (loading control).
Results. MSS/MSI status of colon cancer cell lines have been reported (Ahmed, D., et al., Oncogenesis 2013, 2, e71), allowing for selection of HT-29, an MSS colon cancer cell line. To date, studies that have focused on the cleavage of MLH1 have utilized strategies that broadly induce high levels of apoptotic cell death (i.e., with staurosporine). HT-29 cells were treated with sub-lethal PAC-1.

clinical = settings: human, in vivo, 450 mg
GL261 neurospheres = test: Tumor infiltrating lymphocytes (CD3 staining) in orthotopic GL261 syngeneic model; format: in vivo, C57BL/6 mice; settings: single-agent PAC-1 100 mg/kg PO x 10 days
Experimental: (§1) FIG. 4. PAC-1 treatment of mice with syngeneic tumors increases the numbers of tumor infiltrating lymphocytes. A) C57BL/6 mice with orthotopic transplant of GL261 neurospheres. Tumors were allowed to establish for 10 days, then mice (n=3/group) were treated with or without PAC-1 (100 mg/kg PO×10 days), then sacrificed. Tumors were stained for CD3 (brown) to identify T cell TILs. Data presented as average CD3^+ per 4 HPF/mouse. Magnification 100×. B) C57BL/6 mice with subcutaneous transplant of B16F10 cells. Tumors were allowed to establish for 7 days, then mice (n=8/group) were treated with or without PAC-1 (100 mg/kg IP×2×14 days), then sacrificed. Tumors were stained for CD3 (brown) to identify T cell TILs. Data presented as average CD3^+ per 10 HPF/mouse. Magnification 100×.

B16F10 cells = test: Tumor infiltrating lymphocytes (CD3 staining) in subcutaneous B16F10 syngeneic model; format: in vivo, C57BL/6 mice; settings: single-agent PAC-1 100 mg/kg IP x2 x14 days
Experimental: as §1

[2] = Secondary malignancies in pet dogs with cancer treated with PAC-1; format: in vivo; settings: pet dogs treated >6 months, >12 months after completion of therapy
From the text: (§2) It should be noted that cancer drugs can induce secondary cancers, for example, almost ⅓ of patients treated with single-agent vemurafenib develop secondary malignancies; but to date this has not been observed for PAC-1. Just as PAC-1 induces PC-3 cleavage selectively in cancer cells, the resulting caspase-3 activity should lead to selective MLH1 cleavage in cancer cells. It is worth noting that Turcot syndrome, a constitutional mismatch repair deficiency (CMMRD) cancer prone syndrome, is correlated with biallelic germline mutations in MMR genes, resulting in the development of GBM at a young age. Turcot syndrome and other CMMRD syndromes (i.e. Lynch Syndrome) point to the importance of maintaining MMR protein function, implying that inducing MLH1 cleavage/loss in a non-targeted, pan-organism fashion is not a viable therapeutic strategy. However, the strategy with PAC-1 leverages the well-known overexpression of PC-3 in cancer cells (including GBM) resulting in targeted MLH1 cleavage in tumors, leaving MMR proteins in normal cells unperturbed and operating.

[3] = Tolerability of PAC-1 in the human clinical trial; format: in vivo; settings: patients taking PAC-1 for over 10 months (one at 450 mg daily)
From the text: as §2

cancer cells [4] = test: Transcript profile of cancer cells treated with PAC-1; format: cell-based
From the text: (§3) Increased immune cell infiltration in PAC-1 treated GL261 tumors. […] 3) PAC-1 is efficacious in in vivo settings with intact immune systems, including syngeneic mouse (EL4, K7M2, GL261) (FIG. 7) and rat (9L) models, and canine cancer patients.

[5] = Myelosuppression in animals and humans, including IND-enabling rat and dog studies; format: in vivo, mice, rats, dogs, or humans; settings: also at very high doses in IND-enabling rat and dog studies
From the text: as §3

cancer cells [6] = test: DNA damage in cancer cells; format: cell-based
From the text: as §3

CT-26_WT cells = test: CT-26_WT subcutaneous tumor model; format: in vivo, BALB/c mice; settings: sc CT-26_WT; PAC-1 100 mg/kg i.p., anti-PD-1 10 mg/kg, 2 or 4 doses; vs vehicle+anti-IgG
Experimental: FIG. 9. Growth of CT-26_WT in BALB/c mice after 2 doses (A) versus 4 doses (B). Open circle=vehicle+anti-IgG2A antibody; square=PAC-1 (100 mg/kg)+anti-IgG2a antibody; triangle=vehicle+anti-PD-1 mAb; inverted triangle=PAC-1 (100 mg/kg)+anti-PD-1 mAb.
FIG. 10. Analysis of treatment of BALB/c mice with PAC-1 and anti-PDL1 mAb. Open circle=vehicle+anti-IgG2A antibody; square=PAC-1 (100 mg/kg)+anti-IgG2a antibody; triangle=vehicle+anti-PD-1 mAb; inverted triangle=PAC-1 (100 mg/kg)+anti-PD-1 mAb.
FIG. 8 illustrates the development of a CT-26_WT subcutaneous disease model in BALB/c mice. At day 0, BALB/c mice were injected subcutaneously with 1×10^6 CT-26_WT cells. At various day intervals, selected mice were injected (i.p.) with an empty vehicle, PAC-1 (100 mg/kg), anti-PD-1 antibody (10 mg/kg; 2 doses), anti-PD-1 antibody (10 mg/kg; 4 doses), or a combination of PAC-1 (100 mg/kg) and anti-PD-1 antibody (10 mg/kg;) as shown in Table 1.

plasma cytokines = test: Cytokine array of plasma from mice treated with PAC-1; format: in vivo, BALB/c mice; settings: PAC-1 x5 doses, pooled samples from 2-3 mice
Experimental: FIG. 12. A) Example treatment protocol. B) Cytokine array of plasma from BALB/c mice treated with PAC-1.
[…] were centrifuged at 8000 g for 10 mins, and plasma/supt was transferred to new tubes. Cytokine array was performed on 4 groups using pooled samples from 2-3 mice:
Signals were quantified using ImageJ. Data was normalized by calculating the ratio of PAC-1/vehicle mean pixel density as shown in the plot.

[7] = test system: lung tumor microenvironment; test: Immune cell populations in lungs, PBMC and spleen after tumor challenge; format: in vivo, BALB/c mice
From the text: FIG. 13. Analysis of neutrophil and macrophage populations after treatment with PAC-1 14 days post-tumor challenge in lungs, PBMC, and spleen. Open circle=vehicle+anti-IgG2A antibody; square=PAC-1+anti-IgG2a antibody; triangle=vehicle+anti-PD-1 mAb; inverted triangle=PAC-1+anti-PD-1 mAb.
FIG. 14. Analysis of T-cells, B-cells, and NK cell populations in the lungs, PBMC, and spleen of BALB/c mice 26 days post combinatorial PAC-1 and anti-PD-1 treatment. Open circle=vehicle+anti-IgG2A antibody; square=PAC-1+anti-IgG2a antibody; triangle=vehicle+anti-PD-1 mAb; inverted triangle=PAC-1+anti-PD-1 mAb.
FIG. 15. PD-L1 expression on the surface of dendritic cells and CD45^− tumor cells 26 days post-tumor challenge in lungs, PBMC, and spleen of BALB/c mice. Open circle=vehicle+anti-IgG2A antibody; square=PAC-1+anti-IgG2a antibody; triangle=vehicle+anti-PD-1 mAb; inverted triangle=PAC-1+anti-PD-1 mAb.

[8] = combination with immune cytokine TRAIL, in culture; cited from earlier work
PMBCs = settings: cited from earlier work
[9] = HT-29 cells, sub-lethal PAC-1, 72 hours

SMILES | Fraction of patients developing secondary malignancies [1] | Selectivity of MLH1 cleavage, cancer cell lines vs normal cell line HFF-1 (HT-29 cells; 72 hours) | PARP-1 cleavage (apoptosis marker) (HT-29 cells; [9]) | PC-3 activation and MLH1 cleavage (HT-29 cells; [9]) | Cmax (clinical) | Number of TILs (CD3+ cells) (GL261 neurospheres) | Number of TILs (CD3+ cells) (B16F10 cells) | Secondary malignancies [2] | Ill effects on prolonged dosing [3] | Markers associated with resistance to anti-PD-1 therapy (IPRES) (cancer cells [4]) | Upregulated genes in transcript profile (cancer cells [4]) | Myelosuppression [5] | DNA damage (cancer cells [6]) | Tumor growth (CT-26_WT cells) | Plasma cytokines (ratio PAC-1/vehicle mean pixel density) (plasma cytokines) | Neutrophils and macrophages in lung tumor microenvironment ([7]; day 14 post-tumor challenge) | Macrophages and dendritic cells in tumor microenvironment ([7]; day 26) | Extrinsic cell death [8] | Toxicity to PBMCs (PMBCs)
CCCS(=O)(=O)Nc1ccc(F)c(C(=O)c2c[nH]c3ncc(-c4ccc(Cl)cc4)cc23)c1F [vemurafenib] | ⅓ | – | – | – | – | – | – | – | – | – | – | – | – | – | – | – | – | – | –
C=CCc1cccc(/C=N/NC(=O)CN2CCN(Cc3ccccc3)CC2)c1O [PAC-1] | – | cancer cell specific MLH1 cleavage | little to no PARP-1 cleavage | induced PC-3 activation and MLH1 cleavage | 7.8 µM | increased the number of TILs | increased the number of TILs | remain free of secondary malignancies | no ill effects | no upregulation | upregulation of key genes including TNFα, innate immune system agonists IL-1β and IL-8 | has not been observed to induce myelosuppression | causes DNA damage selectively in cancer cells | large variation in controlling sc CT-26_WT growth | increase in cytokines that promote macrophage differentiation as well as B-cell and T-cell proliferation | appear to increase | have decreased | can enhance extrinsic cell death in culture | minimal toxicity to PMBCs

— US20220226311A1, “PROCASPASE-3 ACTIVATION AND IMMUNOTHERAPY FOR TREATMENT OF CANCER” (The Board of Trustees of the University of Illinois, priority 2019, published 2022)
